{"source": "patent US12630632B2", "about": "“Bispecific HER2 and CD3 binding molecules” (Memorial Sloan Kettering Cancer Center, priority 2017, dated 2026)", "key": {"[1]": {"test_system": "osteosarcoma cell line U2OS", "test": "Cell proliferation assay (WST-8)", "format": "cell-based, human", "details": "10 nM kinase inhibitors, 10 μg/mL antibodies", "experimental": "(§1) Cell proliferation was determined using an ELISA plate reader and the WST-8 kit (Dojindo technologies) following the manufacturer's instructions and using the formula: % survival rate=(Sample-Background)/(Negative control-Background). Lapatinib (MSKCC pharmacy) was ground using a mortar and pestle and suspended in DMSO as previously described. To determine statistical significance, the results were analyzed using one-way ANOVA using Prism 6.0.\n(§2) For cell proliferation assays, 5,000 tumor cells were plated using RPMI-1640 supplemented with 10% FBS in a 96 well plate for 36 hours before being treated with lapatinib or the antibodies at the specified concentrations. Cell proliferation was determined using an ELISA plate reader and the WST-8 kit (Dojindo technologies) following the manufacturer's instructions and using the formula: % survival rate=(Sample-Background)/(Negative control-Background). Lapatinib (Memorial Sloan Kettering Cancer Center pharmacy) was ground using a mortar and pestle and suspended in DMSO as previously described (Chen et al., 2012, Molecular cancer therapeutics 11:660-669). To determine statistical significance, the results were analyzed using one-way ANOVA using Prism 6.0.\n(§3) For tumor cell proliferation, 5,000 tumor cells were plated using RPMI-1640 supplemented with 10%, fetal bovine serum (“FBS”) in a 96 well plate for 36 hours before being treated with—kinase inhibitors or the antibodies at the specified concentration. Cell proliferation was determined using the cell counting WST-8 kit (Dojindo technologies) following the manufacturer's instructions and using the formula: % survival rate=(Sample-Background)(Negative control-Background). Lapatinib was ground using a mortar and pestle and suspended in DMSO as previously described (Chen et al., Molecular cancer therapeutics 2012; 11:660-9). To determine statistical significance, the results were analyzed using one-way ANOVA using Prism 6.0."}, "[2]": {"test_system": "cervical carcinoma HeLa cells", "test": "Cell proliferation assay (WST-8)", "format": "cell-based, human", "details": "10 nM kinase inhibitors, 10 μg/mL antibodies", "experimental": "as §1, §2, §3"}, "[3]": {"test_system": "SCCHN cell line PCI-30", "test": "Cell proliferation assay (WST-8)", "format": "cell-based, human", "details": "10 nM kinase inhibitors, 10 μg/mL antibodies", "experimental": "as §1, §2, §3"}, "[4]": {"test_system": "HCC1954 breast cancer xenograft", "test": "s.c. tumor plus i.v. effector cells xenograft model", "format": "in vivo, DKO mice", "details": "i.v. PBMC 7.5×10^6 once per week for 2 weeks, 100 μg i.v. twice per week for 4 weeks (Example 4)", "description": "Three humanized mouse xenograft models were used: (1) intravenous tumor plus intravenous effector cells; (2) subcutaneous tumor plus subcutaneous effector cells; and (3) subcutaneous tumor plus intravenous effector cells. Subcutaneous xenografts were created with 5×10^6 cells suspended in Matrigel (Corning Corp, Tewksbury MA) and implanted in the flank of DKO mice. Effector peripheral blood mononuclear cell (PBMC) cells were purified from buffy coats purchased from the New York Blood Center. Prior to every experimental procedure, PBMCs were analyzed for their percentage of CD3, CD4, CD8 and CD56 cells to ensure consistency. […] Tumor size was measured using (1) hand-held TM900 scanner (Pieira, Brussels, BE); (2) Calipers; or (3) bioluminescence. Bioluminescence imaging was conducted using the Xenogen In Vivo Imaging System (IVIS) 200 (Caliper LifeSciences). Briefly, mice were injected intravenously with 0.1 mL solution of D-luciferin (Gold Biotechnology; 30 mg/mL stock in PBS). […]\nEffector PBMC cells and ATCs were prepared as described above. Prior to every experimental procedure, PBMCs and ATCs were analyzed by FACS for their percentage of CD3, CD4, CD8 and CD56 cells to ensure consistency. […] Tumor size was measured using 1) hand-held TM900 scanner (Pieira, Brussels, BE), 2) Calipers, or 3) Bioluminescence. […]"}, "[5]": {"test_system": "HeLa", "test": "T-cell cytotoxicity, 51Cr release assay", "format": "cell-based, human", "details": "HeLa pre-treated with lapatinib", "experimental": "(§4) The ^51Cr release assay was performed with effector T cells cultured in vitro in the presence of anti-CD3 and anti-CD28 for about 14 days. All target tumor cells were harvested with 2 mM EDTA in PBS, labeled with ^51Cr (Amersham, Arlington Height, IL) at 100 μCi/106 cells at 37° C. for 1 h. 5000 target cells/well were mixed with 50,000 effector cells (E:T=10:1) and BsAb antibodies in 96-well polystyrene round-bottom plates (BD Biosciences) to a final volume of 250 μl/well. The plates were incubated at 37° C. for 4 h. The released ^51Cr in supernatant was counted in a γ-counter (Packed Instrument, Downers Grove, IL). Percentage of specific release was calculated using the formula: (experimental cpm−background cpm)/(total cpm−background cpm)×100%, where cpm represented counts per minute of ^51Cr released. Total release was assessed by lysis with 10% SDS (Sigma, St Louis, Mo), and background release was measured in the absence of effector cells. EC50 was calculated using SigmaPlot software.\nCell cytotoxicity was assayed by ^51Cr release as previously described (Xu et al., Cancer immunology research 2015; 3:266-77), and EC50 was calculated using SigmaPlot software. Effector PBMC cells were purified from buffy coats purchased from the New York Blood Center. […]"}, "[6]": {"test_system": "HER2(+) SCCHN PCI-13 cells", "test": "Blocking of HER2-BsAb T-cell cytotoxicity by trastuzumab or anti-CD3", "format": "cell-based, human", "details": "for effect of blocking antibody on HER2-BsAb induced T cell cytotoxicity: HER2-positive cells pre-incubated with blocking antibody (Examples 1, 2)", "experimental": "as §4"}, "[7]": {"test_system": "naïve T cells", "test": "T cell proliferation (WST-8)", "format": "cell-based, human", "details": "67 nM antibody, 6 days", "experimental": "For T cell proliferation, naïve T cells were purified from human PBMC using Pan T cell isolation kit (Miltenyi Biotec). 2×10^5 purified T cells were mixed with different antibodies in 96-well cell culture plate to a final volume of 250 μl/well. T cells were cultured and maintained in RPMI-1640 supplemented with 10% FBS in 37° C. for 6 days. T cell proliferation was quantitated using the WST-8 kit as described above."}}, "note": "“Also recorded” adds a separate entry of the source."}
{"molecule": "C#Cc1cccc(Nc2ncnc3cc(OCCOC)c(OCCOC)cc23)c1", "note": "[erlotinib]", "values": [{"measurement": "sensitivity in proliferation assay", "setting": "[1]", "result": "minimal sensitivity; also recorded: resistant"}, {"measurement": "sensitivity in proliferation assay", "setting": "[2]", "result": "resistant"}, {"measurement": "sensitivity in proliferation assay", "setting": "[2]; listed as Erlotinib", "result": "pan-resistant"}, {"measurement": "sensitivity in proliferation assay", "setting": "[3]", "result": "resistant"}]}
{"molecule": "Pembrolizumab", "values": [{"measurement": "tumor volume", "setting": "[4]", "result": "no effect"}]}
{"molecule": "CS(=O)(=O)CCNCc1ccc(-c2ccc3ncnc(Nc4ccc(OCc5cccc(F)c5)c(Cl)c4)c3c2)o1", "note": "[lapatinib]", "values": [{"measurement": "sensitivity in proliferation assay", "setting": "[1]", "result": "resistant"}, {"measurement": "sensitivity in proliferation assay", "setting": "[1]; listed as Lapatinib", "result": "minimal sensitivity"}, {"measurement": "sensitivity in proliferation assay", "setting": "[2]", "result": "no effect on cell proliferation; also recorded: resistant"}, {"measurement": "sensitivity in proliferation assay", "setting": "[2]; listed as Lapatinib", "result": "pan-resistant"}, {"measurement": "sensitivity in proliferation assay", "setting": "[3]", "result": "resistant"}, {"measurement": "effect of pretreatment on sensitivity to HER2-BsAb mediated cytotoxicity", "setting": "[5]", "result": "enhances"}]}
{"molecule": "OKT3: CD3 specific blocking mAb", "values": [{"measurement": "effect of blocking antibody on HER2-BsAb induced T cell cytotoxicity", "setting": "[6]", "result": "prevented"}]}
{"molecule": "huOKT3: humanized anti-CD3 OKT3 IgG1, bivalent", "values": [{"measurement": "effect of blocking antibody on HER2-BsAb induced T cell cytotoxicity", "setting": "[6]", "result": "block"}, {"measurement": "effect of blocking antibody on HER2-BsAb T-cell cytotoxicity", "setting": "[6]; PCI-13, 0.1 μg/mL HER2-BsAb, 10 μg/mL blocking antibodies", "result": "prevented; also recorded: abrogates"}, {"measurement": "T cell proliferation in the absence of tumor targets", "setting": "[7]", "result": "robust T cell proliferation"}]}
{"molecule": "CCOc1cc2ncc(C#N)c(Nc3ccc(OCc4ccccn4)c(Cl)c3)c2cc1NC(=O)/C=C/CN(C)C", "note": "[neratinib]", "values": [{"measurement": "sensitivity in proliferation assay", "setting": "[1]", "result": "minimal sensitivity; also recorded: resistant"}, {"measurement": "sensitivity in proliferation assay", "setting": "[2]", "result": "resistant"}, {"measurement": "sensitivity in proliferation assay", "setting": "[2]; listed as Neratinib", "result": "pan-resistant"}, {"measurement": "sensitivity in proliferation assay", "setting": "[3]", "result": "resistant"}]}
{"molecule": "Atezolizumab", "values": [{"measurement": "tumor volume", "setting": "[4]", "result": "no effect"}]}
